Source: patent US20120196766A1, “Therapeutic Use of Farnesyltransferase Inhibitors and Methods of Monitoring the Efficacy Thereof” (priority 2004, published 2012)

How the values were obtained:
[1] = test system: NF-κB-LH transfected HEK293 cells; assay: NF-κB reporter gene assay; type: cell-based; conditions: tipifarnib 2 or 5 μM for 18 hours, TNF-α 10 ng/ml for 4 hours
Experimental: HEK293 cells were transfected with the NF-κB-LH plasmid (Biomyx) using Lipofectamine 2000, and stable clones were selected by culture in hygromycin (176 μg/ml). The resulting NF-κB-LH-transfected cells were seeded in DMEM/10% FCS in 96-well plates for use in luciferase reporter assays. On the following day, cells were treated with tipifarnib for 18 hours, then stimulated with TNF-α (10 ng/ml) for 4 hours, after which NF-κB activity was measured using the Steady-Glo® luciferase reporter assay system (Promega). NF-κB activation was calculated as the fold-induction by TNF-α over unstimulated control samples.

[2] = cited from earlier work
[3] = test system: THP-1 cells; assay: Western blot analysis of LPS, TNF-α and IL-1α induced signaling in THP-1 cells; type: cell-based, Human
Experimental: THP-1 cells in 0.5% FBS/RPMI were pre-treated with or without tipifarnib for 18 hours, and subsequently stimulated with LPS (100 ng/ml), TNF-α (10 ng/ml) or IL-1α (5 ng/ml) for 30 minutes. Cells were harvested, washed three times in ice-cold PBS, and lysed in lysis buffer (20 mM Tris (pH 7.5), 150 mM NaCl, 1 mM EDTA, 1 mM EGTA, 1% Triton X-100, 2.5 mM sodium pyrophosphate, 1 mM ([…], 1 mM Na3VO4, 1 μg/ml Leupeptin, 1 mM PMSF). Cell lysates from each sample were mixed with an equal amount of 2× SDS-PAGE sample buffer (Invitrogen), and proteins were separated by electrophoresis in Tris-glycine 10-20% gradient gels (Novex), and transferred to nitrocellulose membranes (PROTRAN; Schleicher & Schuell). The membranes were blocked with 3% BSA in PBS-0.05% Tween-20, and sequentially incubated with primary antibodies and HRP-conjugated secondary antibodies (anti-rabbit IgG or anti-mouse IgG and IgM; PIERCE), followed by ECL detection (Amersham Biosciences). The primary antibodies used were rabbit polyclonal anti-IκBa, and -p38 (Santa Cruz), mouse monoclonal anti-H-Ras (Chemicon), mouse monoclonal anti-phospho-p38 and rabbit polyclonal anti-phospho-Erk (Cell Signaling Technology).

[4] = test system: THP-1 cells; assay: Reverse transcriptase and real-time quantitative PCR of LPS-induced transcription in THP-1 cells; type: cell-based, Human
Experimental: (§1) THP-1 cells were cultured in RPMI1640 medium, supplemented with 10% FBS/100 units/ml Penicillin/10 μg/ml Streptomycin at 37° C., under 5% CO2. […] For the untreated control group (no LPS, no compound) and LPS alone group, equivalent volumes of DMSO were added to the medium. Cells were cultured at 37° C. and pellets were collected at 0 hr, 1 hr, 3 hr, 6 hr, 12 hr & 24 hr. Cell pellets were stored at −80° C. if RNA isolation was not conducted immediately. For experiments to study cytokine secretion in culture supernatants, THP-1 cells were washed twice with PBS, resuspended at 3.4×10^5/ml and cultured in 96-well plates at 250 μL, per well at 37° C. […] Supernatants were collected at different time points as indicated in the figures and were kept at ≦−20° C. until analysis of cytokine production.
Total RNA was isolated using RNeasy mini kit from QIAGEN (Valencia, Calif.) according to the manufacturer's instructions. RNA samples were stored at −80° C.
Two to three micrograms of DNase-treated total RNA were reverse transcribed to cDNA using the Transcriptor First Strand cDNA Synthesis Kit (Roche Diagnostics Corporation, Indianapolis, Ind.) according to the instructions.
Real-time PCR was carried out with the LightCycler FastStart DNA Master^plus SYBR Green I kit (Roche Diagnostics) according to the manufacturer's instructions.
The PCR profile was as follows: (i) denaturation at 95° C. for 10 min. (ii) 45 cycles of 0 s at 95° C., 5 s at 54-58° C. (depending on Tm of the primers), 6-16 s (determined by the length of amplicon) at 72° C. (iii) melting curves for 0 s at 95° C., 15 s at 65° C. and 0 s at 95° C. (iv) cooling at 40° C. for 30 s. Transition rates were: 20° C./s for all steps except 0.1° C./s for 95° C. segment 3 of the melting curves.
For data analysis, the baseline adjustment was carried out in the “arithmetic” mode, and the fluorescence curve analysis was carried out in the “Second Derivative Maximum” mode of the LightCycler™ software (Version 3.5).
The primers used for real-time PCR were as follows (5′ to 3′): […]

[5] = test system: THP-1 cells; assay: LPS-induced cytokine, chemokine and MMP-9 secretion by THP-1 cells (ELISA); type: cell-based, Human
Experimental: as §1
Human IL-6, IL18, IL1β, MCP-1, MMP-9, and mouse IL-6, IL18, TNFα, MCP-1 and IL-1β were measured with ELISA kits (R&D Systems) according to the manufacturer's instructions.
Samples were tested for cytokines using the Bio-plex cytokine assay kit (Bio-Rad Laboratories, Inc.) according to the manufacturer's instructions. Briefly, 50 μL anti-cytokine antibody conjugated beads were added to wells of a filter plate pre-equilibrated with assay buffer. The beads were washed, then 50 μL of undiluted cell culture supernatant or 4-fold diluted plasma samples were added and incubated for 2 hours. Biotinylated anti-cytokine antibody (25 μL) was added to each well and the plate was incubated with shaking for 1.5 hours. Streptavidin-PE (50 μL) was added to each well and the plate was incubated with shaking for 45 min. between incubations, wells were washed 3 times with 100 μL wash buffer and unbound analytes were filtered using a vacuum manifold. Following the last wash step, 125 μL of assay buffer was added to each well and the plate was placed on a shaker for 10 min. The plate was read on a Luminex^100 instrument (Luminex Corporation, Austin, Tex.) according to the manufacturer's instructions. The concentration of cytokine was determined from a standard curve assayed at the same time.

[6] = simvastatin 10 μM or tipifarnib 5 μM, 6 and 12 hours

Cn1cncc1C(N)(c1ccc(Cl)cc1)c1ccc2c(c1)c(-c1cccc(Cl)c1)cc(=O)n2C (single isomer, unassigned; (+)) [tipifarnib, (+)-6-[amino(4-chlorophenyl)(1-methyl-1H-imidazol-5-yl)methyl]-4-(3-chlorophenyl)-1-methyl-2(1H)-quinolinone]
TNF-α induced NF-κB activity [1]: not inhibited | protein binding [2]: highly protein-bound | IκB degradation induced by IL-1α ([3]; 2 μM tipifarnib for 18 hours): no inhibition | IκB degradation induced by TNF-α ([3]; 2 μM tipifarnib for 18 hours): no inhibition | LPS-induced IκB degradation ([3]; 2 μM tipifarnib for 18 hours): significantly inhibited | LPS-induced p38 phosphorylation ([3]; 2 μM tipifarnib for 18 hours): partially reduced | P38 protein expression ([3]; 2 μM tipifarnib for 18 hours): not affected | TNF-α induced p38 phosphorylation ([3]; 2 μM tipifarnib for 18 hours): No significant inhibition | H-Ras farnesylation ([3]; tipifarnib pre-treatment, all treatment groups): partially inhibited | ERK phosphorylation ([3]; tipifarnib pre-treatment, control and stimulated cells): reduced | Induction of IL-8 by LPS [4, 6]: no significant effect | STAT1 induction by LPS [4, 6]: inhibited | Induction of IL-8 by LPS ([4]; simvastatin 10 μM or tipifarnib 5 μM, 3 hours): unaffected | peak of LPS-induced IL-6 transcription ([4]; simvastatin 10 μM or tipifarnib 5 μM, 6 hours): inhibition | LPS-induced IL-6 transcription ([4]; simvastatin 10 μM or tipifarnib 5 μM, 12 hours): inhibition | LPS-induced IL-1β transcription ([4]; simvastatin 10 μM or tipifarnib 5 μM, after 6 and 12 hours): significantly downregulated | LPS-induced MCP-1 transcription ([4]; simvastatin 10 μM or tipifarnib 5 μM, from 6 hours): inhibited significantly | LPS-induced IL-1β transcription ([4]; simvastatin 10 μM or tipifarnib 5 μM, up to 3 hours): unaffected | MyD88 induction by LPS ([4]; tipifarnib 5 μM, 6 and 12 hours): almost complete inhibition | MMP-9 induction by LPS ([4]; tipifarnib 5 μM, 12 hours): no induction | LPS-induced TNF-α production, second phase of induction ([5]; after 22 h up to 48 hours): dose-dependent inhibition | LPS-induced TNF-α production, initial peak ([5]; between 5 and 10 hours): unaffected | LPS-induced IL-8 production ([5]; simvastatin 5 and 10 μM or tipifarnib 2 and 5 μM, 22, 30 and 48 hours): no significant inhibition of IL-8 production, except for 5 μM at 22 hours | LPS-induced MMP-9 secretion ([5]; simvastatin 5 and 10 μM or tipifarnib 2 and 5 μM, 30 and 48 hours): dose-dependently inhibited | extent of inhibition of MCP-1 secretion compared with 10 μM simvastatin ([5]; tipifarnib 2 μM): much greater | LPS-induced TNF-α production, second phase of induction ([5]; tipifarnib 5 μM): totally inhibited | IL-1β secretion ([5]; tipifarnib 2 and 5 μM): dose-dependent inhibition | inhibition of IL-6 release ([5]; tipifarnib 2 and 5 μM): inhibition was observed at all time points | MCP-1 secretion ([5]; tipifarnib 2 and 5 μM, up to 48 hours): dose-dependent inhibition
